Experiments:
[1] = test system: HCV genotype 1a (H77 strain) replicon in HUH-7 cells; experiment: HCV replicon luciferase reporter assay, genotype 1a; type: cell-based; conditions: Hepatitis C virus, Huh-7, 72 h, HCV genotype 1a replicon luciferase, 3 days incubation, read-out: LE_1a (EC50, range)
In short: (§1)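 Replicon inhibition for both genotypes was measured as Renilla luciferase signal (EnduRen, 7.5 μM final, 2 h) after 3-day, 37° C exposure of replicon-bearing HUH-7 cells in 4% FCS DMEM, 0.5% DMSO. The 1b construct carries S1179I; the 1a H77 construct carries P1496L and S2204I. Twenty-point, 3-fold dilutions were fitted four-parametrically for EC50, and CC50 was taken from multiplexed Cell Titer-Blue.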

[2] = test system: HCV genotype 1b (Con1) replicon in HUH-7 cells; experiment: HCV replicon luciferase reporter assay, genotype 1b; type: cell-based; conditions: Hepatitis C virus, Huh-7, 72 h, HCV genotype 1b replicon luciferase, 3 days incubation, read-out: LE_1b (EC50, range)
In short: as §1

Row | SMILES | EC50 [1] [nM] | EC50 [2] [nM]
1 | CCOc1cc2ccnc(O[C@@H]3C[C@H]4C(=O)N[C@]5(C(=O)NS(=O)(=O)C6(C)CC6)C[C@H]5/C=C\CC[C@@H](C)C[C@@H](C)[C@H](NC(=O)OC(C)(C)C(C)(F)F)C(=O)N4C3)c2cc1F [Compound 5397, 3,3-difluoro-2-methylbutan-2-yl((2R,6S,7R,9R,13aS,14aR,16aS,Z)-2-((6-ethoxy-7-fluoroisoquinolin-1-yl)oxy)-7,9-dimethyl-14a-(((1-methylcyclopropyl)sulfonyl)carbamoyl)-5,16-dioxo-1,2,3,5,6,7,8,9,10,11,13a,14,14a,15,16,16a-hexadecahydrocyclopropa[e]pyrrolo[1,2-a][1,4]diazacyclopentadecin-6-yl)carbamate] | 1.01 to 5 | 0.51 to 1
2 | CCOc1cc2ccnc(O[C@@H]3C[C@H]4C(=O)N[C@]5(C(=O)NS(=O)(=O)C6CC6)C[C@H]5/C=C\CC[C@@H](C)C[C@@H](C)[C@H](NC(=O)OC(C)(C)C)C(=O)N4C3)c2cc1F [Compound 5399, tert-butyl ((2R,6S,7R,9R,13aS,14aR,16aS,Z)-14a-((cyclopropylsulfonyl)carbamoyl)-2-((6-ethoxy-7-fluoroisoquinolin-1-yl)oxy)-7,9-dimethyl-5,16-dioxo-1,2,3,5,6,7,8,9,10,11,13a,14,14a,15,16,16a-hexadecahydrocyclopropa[e]pyrrolo[1,2-a][1,4]diazacyclopentadecin-6-yl)carbamate] | 0.51 to 1 | 0.1 to 0.5
3 | CCOc1cc2ccnc(O[C@@H]3C[C@H]4C(=O)N[C@]5(C(=O)NS(=O)(=O)C6CC6)C[C@H]5/C=C\CC[C@@H](C)C[C@@H](C)[C@H](NC(=O)OC(C)(C)C(F)(F)F)C(=O)N4C3)c2cc1F [Compound 5401, 1,1,1-trifluoro-2-methylpropan-2-yl((2R,6S,7R,9R,13aS,14aR,16aS,Z)-14a-((cyclopropylsulfonyl)carbamoyl)-2-((6-ethoxy-7-fluoroisoquinolin-1-yl)oxy)-7,9-dimethyl-5,16-dioxo-1,2,3,5,6,7,8,9,10,11,13a,14,14a,15,16,16a-hexadecahydrocyclopropa[e]pyrrolo[1,2-a][1,4]diazacyclopentadecin-6-yl)carbamate] | 1.01 to 5 | 0.1 to 0.5
4 | CCOc1cc2ccnc(O[C@@H]3C[C@H]4C(=O)N[C@]5(C(=O)NS(=O)(=O)C6CC6)C[C@H]5/C=C\CC[C@@H](C)C[C@@H](C)[C@H](NC(=O)OC(C)(C)C(C)(F)F)C(=O)N4C3)c2cc1F [Compound 5403, 3,3-difluoro-2-methylbutan-2-yl((2R,6S,7R,9R,13aS,14aR,16aS,Z)-14a-((cyclopropylsulfonyl)carbamoyl)-2-((6-ethoxy-7-fluoroisoquinolin-1-yl)oxy)-7,9-dimethyl-5,16-dioxo-1,2,3,5,6,7,8,9,10,11,13a,14,14a,15,16,16a-hexadecahydrocyclopropa[e]pyrrolo[1,2-a][1,4]diazacyclopentadecin-6-yl)carbamate] | 0.51 to 1 | 0.1 to 0.5
5 | CCOc1cc2ccnc(O[C@@H]3C[C@H]4C(=O)N[C@]5(C(=O)NS(=O)(=O)C6CC6)C[C@H]5/C=C\CC[C@@H](C)C[C@@H](CC)[C@H](NC(=O)OC(C)(C)C)C(=O)N4C3)c2cc1F [Compound 5405, tert-butyl ((2R,6S,7R,9R,13aS,14aR,16aS,Z)-14a-((cyclopropylsulfonyl)carbamoyl)-2-((6-ethoxy-7-fluoroisoquinolin-1-yl)oxy)-7-ethyl-9-methyl-5,16-dioxo-1,2,3,5,6,7,8,9,10,11,13a,14,14a,15,16,16a-hexadecahydrocyclopropa[e]pyrrolo[1,2-a][1,4]diazacyclopentadecin-6-yl)carbamate] | 1.01 to 5 | 0.51 to 1
6 | CCOc1cc2ccnc(O[C@@H]3C[C@H]4C(=O)N[C@]5(C(=O)NS(=O)(=O)C6CC6)C[C@H]5/C=C\CC[C@@H](C)C[C@@H](CC)[C@H](NC(=O)OC(C)(C)C(F)(F)F)C(=O)N4C3)c2cc1F [Compound 5407, 1,1,1-trifluoro-2-methylpropan-2-yl((2R,6S,7R,9R,13aS,14aR,16aS,Z)-14a-((cyclopropylsulfonyl)carbamoyl)-2-((6-ethoxy-7-fluoroisoquinolin-1-yl)oxy)-7-ethyl-9-methyl-5,16-dioxo-1,2,3,5,6,7,8,9,10,11,13a,14,14a,15,16,16a-hexadecahydrocyclopropa[e]pyrrolo[1,2-a][1,4]diazacyclopentadecin-6-yl)carbamate] | 1.01 to 5 | 0.51 to 1
7 | CCOc1cc2ccnc(O[C@@H]3C[C@H]4C(=O)N[C@]5(C(=O)NS(=O)(=O)C6CC6)C[C@H]5/C=C\CC[C@@H](C)C[C@@H](CC)[C@H](NC(=O)OC(C)(C)C(C)(F)F)C(=O)N4C3)c2cc1F [Compound 5409, 3,3-difluoro-2-methylbutan-2-yl((2R,6S,7R,9R,13aS,14aR,16aS,Z)-14a-((cyclopropylsulfonyl)carbamoyl)-2-((6-ethoxy-7-fluoroisoquinolin-1-yl)oxy)-7-ethyl-9-methyl-5,16-dioxo-1,2,3,5,6,7,8,9,10,11,13a,14,14a,15,16,16a-hexadecahydrocyclopropa[e]pyrrolo[1,2-a][1,4]diazacyclopentadecin-6-yl)carbamate] | 1.01 to 5 | 0.51 to 1
8 | CCOc1cc2ccnc(O[C@@H]3C[C@H]4C(=O)N[C@]5(C(=O)NS(=O)(=O)C6(CF)CC6)C[C@H]5/C=C\CC[C@H](C)C[C@@H](C)[C@H](NC(=O)OC(C)(C)C)C(=O)N4C3)c2cc1F [Compound 5410, tert-butyl ((2R,6S,7R,9S,13aS,14aR,16aS,Z)-2-((6-ethoxy-7-fluoroisoquinolin-1-yl)oxy)-14a-(((1-(fluoromethyl)cyclopropyl)sulfonyl)carbamoyl)-7,9-dimethyl-5,16-dioxo-1,2,3,5,6,7,8,9,10,11,13a,14,14a,15,16,16a-hexadecahydrocyclopropa[e]pyrrolo[1,2-a][1,4]diazacyclopentadecin-6-yl)carbamate] | 5.01 to 35 | 1.01 to 5
9 | CCOc1cc2ccnc(O[C@@H]3C[C@H]4C(=O)N[C@]5(C(=O)NS(=O)(=O)C6(CF)CC6)C[C@H]5/C=C\CC[C@@H](C)C[C@@H](C)[C@H](NC(=O)OC(C)(C)C)C(=O)N4C3)c2cc1F [Compound 5411, tert-butyl ((2R,6S,7R,9R,13aS,14aR,16aS,Z)-2-((6-ethoxy-7-fluoroisoquinolin-1-yl)oxy)-14a-(((1-(fluoromethyl)cyclopropyl)sulfonyl)carbamoyl)-7,9-dimethyl-5,16-dioxo-1,2,3,5,6,7,8,9,10,11,13a,14,14a,15,16,16a-hexadecahydrocyclopropa[e]pyrrolo[1,2-a][1,4]diazacyclopentadecin-6-yl)carbamate] | 1.01 to 5 | 0.51 to 1
10 | CCOc1cc2ccnc(O[C@@H]3C[C@H]4C(=O)N[C@]5(C(=O)NS(=O)(=O)C6(CF)CC6)C[C@H]5/C=C\CC[C@@H](C)C[C@@H](C)[C@H](NC(=O)OC(C)(C)C(F)(F)F)C(=O)N4C3)c2cc1F [Compound 5413, 1,1,1-trifluoro-2-methylpropan-2-yl((2R,6S,7R,9R,13aS,14aR,16aS,Z)-2-((6-ethoxy-7-fluoroisoquinolin-1-yl)oxy)-14a-(((1-(fluoromethyl)cyclopropyl)sulfonyl)carbamoyl)-7,9-dimethyl-5,16-dioxo-1,2,3,5,6,7,8,9,10,11,13a,14,14a,15,16,16a-hexadecahydrocyclopropa[e]pyrrolo[1,2-a][1,4]diazacyclopentadecin-6-yl)carbamate] | 1.01 to 5 | 0.51 to 1
11 | CCOc1cc2ccnc(O[C@@H]3C[C@H]4C(=O)N[C@]5(C(=O)NS(=O)(=O)C6(CF)CC6)C[C@H]5/C=C\CC[C@@H](C)C[C@@H](C)[C@H](NC(=O)OC(C)(C)C(C)(F)F)C(=O)N4C3)c2cc1F [Compound 5415, 3,3-difluoro-2-methylbutan-2-yl((2R,6S,7R,9R,13aS,14aR,16aS,Z)-2-((6-ethoxy-7-fluoroisoquinolin-1-yl)oxy)-14a-(((1-(fluoromethyl)cyclopropyl)sulfonyl)carbamoyl)-7,9-dimethyl-5,16-dioxo-1,2,3,5,6,7,8,9,10,11,13a,14,14a,15,16,16a-hexadecahydrocyclopropa[e]pyrrolo[1,2-a][1,4]diazacyclopentadecin-6-yl)carbamate] | 1.01 to 5 | 0.51 to 1
12 | CC[C@@H]1C[C@H](C)CC/C=C\[C@@H]2C[C@@]2(C(=O)NS(=O)(=O)C2(C)CC2)NC(=O)[C@@H]2C[C@@H](Oc3ncc(N4CCOCC4)c4ccccc34)CN2C(=O)[C@H]1NC(=O)OC(C)(C)C [Compound 5417] | 1.01 to 5 | 1.01 to 5
13 | CC[C@@H]1C[C@H](C)CC/C=C\[C@@H]2C[C@@]2(C(=O)NS(=O)(=O)C2(C)CC2)NC(=O)[C@@H]2C[C@@H](Oc3ncc(N4CCOCC4)c4ccccc34)CN2C(=O)[C@H]1NC(=O)OC(C)(C)C(F)(F)F [Compound 5419, 1,1,1-trifluoro-2-methylpropan-2-yl((2R,6S,7R,9R,13aS,14aR,16aS,Z)-7-ethyl-9-methyl-14a-(((1-methylcyclopropyl)sulfonyl)carbamoyl)-2-((4-morpholinoisoquinolin-1-yl)oxy)-5,16-dioxo-1,2,3,5,6,7,8,9,10,11,13a,14,14a,15,16,16a-hexadecahydrocyclopropa[e]pyrrolo[1,2-a][1,4]diazacyclopentadecin-6-yl)carbamate] | 1.01 to 5 | 0.51 to 1
14 | C[C@@H]1CC/C=C\[C@@H]2C[C@@]2(C(=O)NS(=O)(=O)C2(C)CC2)NC(=O)[C@@H]2C[C@@H](Oc3ncc(N4CCOCC4)c4ccccc34)CN2C(=O)[C@@H](NC(=O)OC(C)(C)C)[C@H](C)C1 [Compound 5421, tert-butyl ((2R,6S,7R,9R,13aS,14aR,16aS,Z)-7,9-dimethyl-14a-(((1-methylcyclopropyl)sulfonyl)carbamoyl)-2-((4-morpholinoisoquinolin-1-yl)oxy)-5,16-dioxo-1,2,3,5,6,7,8,9,10,11,13a,14,14a,15,16,16a-hexadecahydrocyclopropa[e]pyrrolo[1,2-a][1,4]diazacyclopentadecin-6-yl)carbamate] | 1.01 to 5 | 0.51 to 1
